Several values for one entry are separate records, joined by “and”; a condition that tells them apart may be missing. Equal values may be shown once.
Columns and labels:
procaspase-6 = target: T1, procaspase-6 (Homo sapiens, UniProt P55212); format: binding
T1 sequence (P55212 1-293): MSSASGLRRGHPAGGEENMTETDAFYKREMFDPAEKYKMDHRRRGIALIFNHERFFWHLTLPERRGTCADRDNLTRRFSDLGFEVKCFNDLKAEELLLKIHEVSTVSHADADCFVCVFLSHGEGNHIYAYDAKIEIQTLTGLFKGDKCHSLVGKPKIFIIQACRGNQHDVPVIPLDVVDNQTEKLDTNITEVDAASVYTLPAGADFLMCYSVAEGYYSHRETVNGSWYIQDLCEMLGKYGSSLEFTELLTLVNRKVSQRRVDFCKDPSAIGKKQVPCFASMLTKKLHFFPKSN

[1] = target: procaspase-6 (inactive C163S zymogen); details: SPR; cited from earlier work
[2] = target: T2, procaspase-6, Caspase-6 FL N-terminally (His)6 (Homo sapiens, UniProt P55212); assay: biochemical
T2 sequence (P55212 1-293): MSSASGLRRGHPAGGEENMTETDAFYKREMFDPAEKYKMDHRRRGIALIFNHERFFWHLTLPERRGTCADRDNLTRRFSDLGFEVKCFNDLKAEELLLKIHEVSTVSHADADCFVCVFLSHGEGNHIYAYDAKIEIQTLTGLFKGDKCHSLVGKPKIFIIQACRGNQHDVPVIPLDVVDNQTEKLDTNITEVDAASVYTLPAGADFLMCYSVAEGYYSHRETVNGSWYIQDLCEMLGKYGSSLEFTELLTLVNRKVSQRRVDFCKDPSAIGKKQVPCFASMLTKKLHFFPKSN

caspase-6 ΔN D179CT = target: T3, caspase-6 ΔN D179CT (Homo sapiens, UniProt P55212); assay: Effect of ATP on the activity of cleaved, active caspase-6; format: biochemical; details: increasing ATP concentrations (0-40 mM), 1.5 h, 37 °C, 60 μM VEID-AMC
T3 sequence (P55212 24-179): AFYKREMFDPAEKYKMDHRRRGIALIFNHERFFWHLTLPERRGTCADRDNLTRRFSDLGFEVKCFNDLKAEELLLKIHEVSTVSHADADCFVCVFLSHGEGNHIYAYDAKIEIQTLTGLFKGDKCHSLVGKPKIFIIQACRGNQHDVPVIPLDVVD
T3 sequence (P55212 194-293): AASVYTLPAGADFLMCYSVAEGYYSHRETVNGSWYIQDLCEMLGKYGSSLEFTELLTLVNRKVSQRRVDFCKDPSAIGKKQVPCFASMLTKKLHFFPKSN

procaspase-6 Y198A = target: T4, procaspase-6 Y198A (Homo sapiens, UniProt P55212, Y198A); assay: ATPAc labeling of K133, Y198A variant expressed in E. coli; format: binding; details: zymogen processed to mature Y198A caspase-6; relative to C163S = 100%
T4 sequence (P55212 24-179): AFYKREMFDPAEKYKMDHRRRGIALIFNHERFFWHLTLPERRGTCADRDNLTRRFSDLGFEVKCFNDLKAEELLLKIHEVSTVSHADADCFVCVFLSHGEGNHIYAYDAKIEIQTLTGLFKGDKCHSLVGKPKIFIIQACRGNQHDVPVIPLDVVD
T4 sequence (P55212 194-293 Y198A): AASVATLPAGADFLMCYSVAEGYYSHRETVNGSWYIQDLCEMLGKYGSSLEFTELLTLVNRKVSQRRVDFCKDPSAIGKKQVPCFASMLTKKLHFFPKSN

procaspase-6 C163S = target: T5, procaspase-6 C163S (Homo sapiens, UniProt P55212, C163S); assay: ATPAc labeling of K133, C163S variant expressed in E. coli; format: binding; details: full-length zymogen; defined as 100%
T5 sequence (P55212 1-293 C163S): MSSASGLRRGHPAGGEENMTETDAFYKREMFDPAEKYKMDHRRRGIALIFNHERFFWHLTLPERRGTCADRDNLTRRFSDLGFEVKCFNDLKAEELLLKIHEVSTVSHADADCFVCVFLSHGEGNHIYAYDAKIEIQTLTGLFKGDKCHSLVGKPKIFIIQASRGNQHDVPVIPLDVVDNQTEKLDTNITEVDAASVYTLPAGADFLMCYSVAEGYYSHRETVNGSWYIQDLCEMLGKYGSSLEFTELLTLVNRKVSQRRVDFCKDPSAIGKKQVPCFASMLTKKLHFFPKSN

procaspase-6 Y198A/C163S = target: T6, procaspase-6 Y198A/C163S (Homo sapiens, UniProt P55212, C163S/Y198A); assay: ATPAc labeling of K133, Y198A/C163S variant expressed in E. coli; format: binding; details: full-length procaspase-6; relative to C163S = 100%
T6 sequence (P55212 1-293 C163S/Y198A): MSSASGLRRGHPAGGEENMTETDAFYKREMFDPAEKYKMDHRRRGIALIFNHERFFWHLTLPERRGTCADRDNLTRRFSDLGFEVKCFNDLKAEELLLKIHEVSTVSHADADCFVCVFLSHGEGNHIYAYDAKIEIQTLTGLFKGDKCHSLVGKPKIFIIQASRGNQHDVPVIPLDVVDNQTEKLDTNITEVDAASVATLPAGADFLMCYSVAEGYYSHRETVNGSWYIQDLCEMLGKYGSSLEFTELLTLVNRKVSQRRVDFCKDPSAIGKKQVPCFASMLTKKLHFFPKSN

caspase-6 = target: T7, caspase-6 (Homo sapiens, UniProt P55212); assay: Caspase activity assay, kinetic parameters with VEID-AMC substrate; format: biochemical; details: 100 nM enzyme, VEID-AMC 0-500 μM, 37 °C
T7 sequence (P55212 24-179): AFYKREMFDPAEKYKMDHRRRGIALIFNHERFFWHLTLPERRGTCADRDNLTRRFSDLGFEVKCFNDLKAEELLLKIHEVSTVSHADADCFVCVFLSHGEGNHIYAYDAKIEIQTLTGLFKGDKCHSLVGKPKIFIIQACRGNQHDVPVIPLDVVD
T7 sequence (P55212 194-293): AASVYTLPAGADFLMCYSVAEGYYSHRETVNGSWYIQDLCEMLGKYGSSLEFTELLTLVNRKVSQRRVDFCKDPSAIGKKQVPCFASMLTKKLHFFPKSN

Question: For `Nc1cc2ccccc2c(O)n1` [compound 3, 3-aminoisoquinolin-1-ol], which IC50 (procaspase-6) is on record?
Answer: > 1000 µM

Question: What about the Kd [1] of the same molecule?
Answer: 1.8 µM and ~1.8 µM

Question: What does the source list for `Nc1ncnc2c1ncn2[C@@H]1O[C@H](COP(=O)(O)OP(=O)(O)OP(=O)(O)O)[C@@H](O)[C@H]1O` [ATP, adenosine triphosphate]?
Answer: IC50 (procaspase-6): 1000 to 3000 µM; Ki (procaspase-6): ~2000 µM; IC50 [2]: 19000 ± 800 µM; activity of mature caspase-6 (caspase-6 ΔN D179CT): not affected

Question: With “desthiobiotin acyl phosphate of ATP [ATPAc]” as the molecule, how does the “acylation of K133” value (procaspase-6 Y198A) read?
Answer: 1.9%

Question: What about the “acylation of K133” value (procaspase-6 C163S) of the same molecule?
Answer: 100%

Question: And the “acylation of K133” value (procaspase-6 Y198A/C163S)?
Answer: 1.7%

Question: With `Nc1nc2c(ncn2[C@@H]2O[C@H](COP(=O)(O)OP(=O)(O)OP(=O)(O)O)[C@@H](O)[C@H]2O)c(=O)[nH]1` [GTP, guanosine triphosphate] as the molecule, how does the “inhibition of K133 acylation by acyl phosphate probes” value (procaspase-6; resting Jurkat lysates pretreated 15 min with nucleotide (5 mM)) read?
Answer: inhibited

Question: For `Nc1ncnc2c1ncn2[C@H]1C[C@H](O)[C@@H](COP(=O)(O)OP(=O)(O)OP(=O)(O)O)O1` [dATP], which “inhibition of probe acylation (immunoblot)” value (procaspase-6; immunoblot experiment, at ≤100 mM) is on record?
Answer: no significant inhibition

B1: Y198A: mature active caspase-6 Y198A variant, recombinant, expressed in E. coli (protein, UniProt P55212 1-293, looked up, variant Y198A)
chain: MSSASGLRRGHPAGGEENMTETDAFYKREMFDPAEKYKMDHRRRGIALIFNHERFFWHLTLPERRGTCADRDNLTRRFSDLGFEVKCFNDLKAEELLLKIHEVSTVSHADADCFVCVFLSHGEGNHIYAYDAKIEIQTLTGLFKGDKCHSLVGKPKIFIIQACRGNQHDVPVIPLDVVDNQTEKLDTNITEVDAASVATLPAGADFLMCYSVAEGYYSHRETVNGSWYIQDLCEMLGKYGSSLEFTELLTLVNRKVSQRRVDFCKDPSAIGKKQVPCFASMLTKKLHFFPKSN
Question: For B1, which kcat (caspase-6) is on record?
Answer: 2.84 ± 0.04 s⁻¹

From article PMC6874883 (Biochemistry, 2019)
